The subject of this assay is BDF1 mice, P388 leukemia ip, median survival T/C. Description: NCI In Vivo Anticancer Drug Screen. Data for tumor model P388 Leukemia (intraperitoneal) in B6D2F1 (BDF1) mice. To be noted: endpoint: median survival time, higher = longer survival. The method, boiled down: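 Each value expresses how treatment altered survival: treated-mouse outcome over vehicle-mouse outcome, both groups bearing the transplanted tumour.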

[1] abbreviates: dose: 50.0 mg/kg/injection, schedule: Q01DX009 (ip), vehicle: saline with Tween-80.
The mark [2] stands for this setting: dose: 100.0 mg/kg/injection, schedule: Q01DX009 (ip), vehicle: saline with Tween-80.
[3] abbreviates: dose: 200.0 mg/kg/injection, schedule: Q01DX009 (ip), vehicle: saline with Tween-80.
The mark [4] stands for this setting: dose: 25.0 mg/kg/injection, schedule: Q04DX003 (ip), vehicle: Klucel (hydroxypropylcellulose) (HPC).
[5] abbreviates: dose: 100.0 mg/kg/injection, schedule: Q04DX003 (ip), vehicle: Klucel (hydroxypropylcellulose) (HPC).
The mark [6] stands for this setting: dose: 200.0 mg/kg/injection, schedule: Q04DX003 (ip), vehicle: Klucel (hydroxypropylcellulose) (HPC).
Where [7] appears, read: dose: 25.0 mg/kg/injection, schedule: Q01DX009 (ip), vehicle: saline with Tween-80.

Several values for one entry are separate records, joined by “and”; a condition that tells them apart may be missing. Equal values may be shown once. Toxic doses and inconclusive results are not listed. Starred links: 1 amine or outer side, 2 acyl side, 3 side chain; linkers in the order of their positions; H or OH if unused. Positions of bridges follow the written chain, without caps; N, C: chain ends. Non-standard residues stand in square brackets, D forms with d. Residues, ends and D or L forms follow the SMILES beside them. Chains are numbered I, II in the order given. Actinocin(9to1) = Cc1c2oc3c(C)ccc(C(=O)[*:1])c3nc-2c(C(=O)[*:2])c(N)c1=O; NMeV = CN[CH](C(=O)O)C(C)C; Pip = O=C(O)[CH]1CCCCN1; Sar = CNCC(=O)O

As for `N#CC1C=Cc2ccccc2N1C(=O)Oc1ccccc1` (centres undefined), the T/C was 110 % of control under setting [1]; 100 % of control (dose: 100.0 mg/kg/injection, schedule: Q01DX001 (ip), vehicle: other); 100 % of control under setting [2]; 95 % of control (dose: 100.0 mg/kg/injection, schedule: Q04DX003 (ip), vehicle: saline with Tween-80); 109 % of control (dose: 200.0 mg/kg/injection, schedule: Q01DX001 (ip), vehicle: other); 110 % of control under setting [3]. Further, the T/C is 100 % of control (dose: 200.0 mg/kg/injection, schedule: Q04DX003 (ip), vehicle: saline with Tween-80); 90 % of control (dose: 400.0 mg/kg/injection, schedule: Q01DX001 (ip), vehicle: other); 113 % of control (dose: 400.0 mg/kg/injection, schedule: Q04DX003 (ip), vehicle: saline with Tween-80).
In the case of `CCOC(=O)N1CCN(CCCOc2ccc(Cl)cc2Cc2ccccc2)CC1`, the T/C runs as follows: under setting [1], 96 % of control; under setting [2], 96 % of control; under setting [3], 105 % of control.
For the compound `Cc1ccc(C(=O)N/N=C/C(=O)O)cc1`, the T/C was 113 % of control (dose: 12.5 mg/kg/injection, schedule: Q04DX003 (ip), vehicle: Klucel (hydroxypropylcellulose) (HPC)); 106 % of control under setting [4]; 116 % of control (dose: 50.0 mg/kg/injection, schedule: Q04DX003 (ip), vehicle: Klucel (hydroxypropylcellulose) (HPC)); 106 % of control under setting [5]; 122 % of control under setting [6].
For `O=c1cc(CCl)[nH]nc1CCl`, the T/C is, setting by setting: (dose: 14.5 mg/kg/injection, schedule: Q04DX003 (ip), vehicle: saline with Tween-80) 166 % of control; (dose: 22.0 mg/kg/injection, schedule: Q04DX003 (ip), vehicle: saline with Tween-80) 159 % of control; (dose: 33.0 mg/kg/injection, schedule: Q04DX003 (ip), vehicle: saline with Tween-80) 151 % of control; (dose: 75.0 mg/kg/injection, schedule: Q04DX003 (ip), vehicle: saline with Tween-80) 98 % of control.
As to `Cc1c2oc3c(C)ccc(C(=O)NC4C(=O)NC(C(C)C)C(=O)N5CCCCC5C(=O)N(C)CC(=O)N(C)C(C(C)C)C(=O)OC4C)c3nc-2c(C(=O)NC2C(=O)NC(C(C)C)C(=O)N3CCCCC3C(=O)N(C)CC(=O)N(C)C(C(C)C)C(=O)OC2C)c(N)c1=O` (centres undefined) (I: TV[Pip][Sar][NMeV] / II: TV[Pip][Sar][NMeV]; ester I:1-I:C, II:1-II:C; linker I:N-II:N via Actinocin(9to1); configuration not given here), the T/C by setting is: (dose: 0.25 mg/kg/injection, schedule: Q01DX009 (ip), vehicle: saline + alcohol) 114 % of control; (dose: 0.75 mg/kg/injection, schedule: Q04DX003 (ip), vehicle: saline + alcohol) 116 % of control; (dose: 2.0 mg/kg/injection, schedule: Q01DX009 (ip), vehicle: saline + alcohol) 162 % of control; (dose: 4.0 mg/kg/injection, schedule: Q01DX009 (ip), vehicle: saline + alcohol) 180 % of control; (dose: 6.0 mg/kg/injection, schedule: Q04DX003 (ip), vehicle: saline + alcohol) 160 % of control; (dose: 12.0 mg/kg/injection, schedule: Q04DX003 (ip), vehicle: saline + alcohol) 155 % of control.
Take `Cc1cc(=O)c(O)c(N(C)C)o1`: the T/C reads like this: under setting [1], 95 % of control; under setting [2], 106 % of control; under setting [3], 102 % of control.
In the case of `COc1ccc(OC)c(NC=O)c1`, the T/C under setting [7] was 97 % of control and the T/C under setting [2] was 97 % of control.
With `CCCCCCCN1C=CCC(S(=O)(=O)N2CCOCC2)=C1`, the T/C was 109 % of control under setting [1], 99 % of control under setting [2] and 109 % of control under setting [3].
Take `ClC(Cl)(Cl)SSC(=Nc1ccccc1)SSC(Cl)(Cl)Cl`: the T/C runs as follows: under setting [1], 106 % of control; under setting [2], 117 % of control.
Take `O=C(O)c1ccccc1P12(OC(=O)c3ccccc31)OC(=O)c1ccccc12`: the T/C is 99 % of control under setting [7], 99 % of control under setting [1] and 90 % of control under setting [2].
Consider `COC(=O)C(CCC1CCCCN1)(c1ccccc1)c1ccccc1` (centres undefined), for which the T/C (dose: 66.0 mg/kg/injection, schedule: Q04DX003 (ip), vehicle: saline with Tween-80) was 123 % of control and the T/C (dose: 100.0 mg/kg/injection, schedule: Q01DX009 (ip), vehicle: saline) was 90 % of control.
Turning to `CC(C)C(=O)[O][Sn]([CH3])([CH3])[CH3]`, the T/C (dose: 0.75 mg/kg/injection, schedule: Q01DX009 (ip), vehicle: saline) was 100 % of control and the T/C (dose: 1.5 mg/kg/injection, schedule: Q01DX009 (ip), vehicle: saline) was 91 % of control.
Consider `Cc1nc(C(=O)O)c(=O)[nH]c1C`, for which the T/C (dose: 50.0 mg/kg/injection, schedule: Q01DX009 (ip), vehicle: water) is 114 % of control; the T/C (dose: 50.0 mg/kg/injection, schedule: Q04DX003 (ip), vehicle: water) is 94 % of control; the T/C (dose: 100.0 mg/kg/injection, schedule: Q01DX009 (ip), vehicle: water) is 122 % of control; the T/C (dose: 100.0 mg/kg/injection, schedule: Q04DX003 (ip), vehicle: water) is 105 % of control; the T/C (dose: 200.0 mg/kg/injection, schedule: Q01DX009 (ip), vehicle: water) was 121 % of control; the T/C (dose: 200.0 mg/kg/injection, schedule: Q04DX003 (ip), vehicle: water) is 100 % of control.
For the compound `Nc1ccc(Cl)cc1C(=O)c1ccc[nH]1`, the T/C is 100 % of control (dose: 100.0 mg/kg/injection, schedule: Q01DX009 (ip), vehicle: Klucel (hydroxypropylcellulose) (HPC)); 100 % of control under setting [5]; 95 % of control (dose: 200.0 mg/kg/injection, schedule: Q01DX009 (ip), vehicle: Klucel (hydroxypropylcellulose) (HPC)); 100 % of control under setting [6]; 100 % of control (dose: 400.0 mg/kg/injection, schedule: Q01DX009 (ip), vehicle: Klucel (hydroxypropylcellulose) (HPC)); 95 % of control (dose: 400.0 mg/kg/injection, schedule: Q04DX003 (ip), vehicle: Klucel (hydroxypropylcellulose) (HPC)).
On to `N#CSCc1ccc(Cl)c(CSC#N)c1`, for which the T/C is 110 % of control (dose: 8.0 mg/kg/injection, schedule: Q01DX009 (ip), vehicle: Klucel (hydroxypropylcellulose) (HPC)); 117 % of control (dose: 12.0 mg/kg/injection, schedule: Q01DX009 (ip), vehicle: Klucel (hydroxypropylcellulose) (HPC)); 160 % of control (dose: 12.5 mg/kg/injection, schedule: Q01DX009 (ip), vehicle: Klucel (hydroxypropylcellulose) (HPC)); 115 % of control (dose: 16.5 mg/kg/injection, schedule: Q04DX003 (ip), vehicle: Klucel (hydroxypropylcellulose) (HPC)); 115 % of control under setting [4]; 123 % of control (dose: 37.0 mg/kg/injection, schedule: Q04DX003 (ip), vehicle: Klucel (hydroxypropylcellulose) (HPC)).
Regarding `COC(=O)c1ccc(OCCOc2ccc(C(C)(C)CC(C)(C)C)cc2)c([N+](=O)[O-])c1`, the T/C by setting is: (dose: 100.0 mg/kg/injection, schedule: Q04DX003 (ip), vehicle: saline sonified) 100 % of control; (dose: 200.0 mg/kg/injection, schedule: Q04DX003 (ip), vehicle: saline sonified) 86 % of control; (dose: 400.0 mg/kg/injection, schedule: Q04DX003 (ip), vehicle: saline sonified) 86 % of control.
For `CCCCCCOCCN1CCN(CCCN2c3ccccc3Sc3ccc(C(F)(F)F)cc32)CC1`, the T/C was 121 % of control (dose: 12.5 mg/kg/injection, schedule: Q04DX003 (ip), vehicle: saline with Tween-80); 97 % of control and 112 % of control (dose: 25.0 mg/kg/injection, schedule: Q04DX003 (ip), vehicle: saline with Tween-80); 94 % of control (dose: 50.0 mg/kg/injection, schedule: Q04DX003 (ip), vehicle: saline with Tween-80).
In the case of `N=c1ccn(C(=O)C2=Cc3ccccc3OC2)cc1`, the T/C is, setting by setting: (dose: 1.25 mg/kg/injection, schedule: Q01DX009 (ip), vehicle: saline with Tween-80) 88 % of control and 112 % of control; (dose: 2.5 mg/kg/injection, schedule: Q01DX009 (ip), vehicle: saline with Tween-80) 96 % of control and 100 % of control; (dose: 5.0 mg/kg/injection, schedule: Q01DX009 (ip), vehicle: saline with Tween-80) 92 % of control and 100 % of control and 112 % of control; (dose: 5.0 mg/kg/injection, schedule: Q04DX003 (ip), vehicle: saline with Tween-80) 118 % of control; (dose: 10.0 mg/kg/injection, schedule: Q04DX003 (ip), vehicle: saline with Tween-80) 95 % of control; (dose: 20.0 mg/kg/injection, schedule: Q04DX003 (ip), vehicle: saline with Tween-80) 90 % of control.

Values taken from PubChem BioAssay AID328 (DTP/NCI, 2004).
